In brackets after ≈: the same amount, converted by molar mass. Several values for one entry are separate records, joined by “and”; a condition that tells them apart may be missing. Identical values can stand only once. Where a SMILES comes first, the peptide text is derived from it.
What was measured:
[1] = system: all Gram-negative strains; assay: Mean MIC and therapeutic index, Gram-negative strains; type: cell-based; conditions: 7 Gram-negative strains of Table 3
[2] = system: MDR P. aeruginosa isolates; assay: MIC against all tested MDR P. aeruginosa isolates; type: cell-based, Pseudomonas aeruginosa; conditions: times higher than ciprofloxacin
P. aeruginosa ATCC 27853 [3] = assay: Membrane permeability (PI) and depolarization (BOX), flow cytometry; type: cell-based, Pseudomonas aeruginosa; conditions: for permeabilized and depolarized cells: 0.5 × MIC; for cell population BOX+PI- / cell population BOX-PI+ / cell population BOX-PI- / permeabilized and depolarized cells (BOX+PI+): 1 × MIC; for permeabilized and depolarized cells (BOX+PI+): 37 °C, triplicate
Protocol: Their outer and inner membranes provide important protection for Gram-negative bacteria. To assess membrane permeability and depolarization induced by PA-13, the DNA intercalating dyes propidium iodide (PI) and bis-(1,3-dibutylbarbituric acid) trimethine oxonol (BOX) were used as previously described. The fluorescence conferred by these dyes is generally associated with the loss of membrane integrity and potential, respectively.
Briefly, P. aeruginosa ATCC 27853 was cultured to mid-logarithmic phase and harvested by centrifugation at 2,000 × g for 5 min. The bacterial cells were washed thrice with PBS and diluted to 10^7 CFU/ml in 50 ml of PBS. […] Bacterial pellets were harvested and washed with PBS by centrifugation at 10,000 × g for 10 min. […] Untreated bacterial cells (no peptide) served as a negative control, whereas bacterial cells treated with melittin served as a positive control. Data was recorded using a flow cytometer (CytoFlex, Beckman Coulter) at a laser excitation wavelength of 488 nm. Forward scatter (FS), side scatter (SS), green fluorescence (530/30 nm) from BOX and red fluorescence (585/42 nm) emitted by PI were collected using logarithmic scales. 25,000 cells, defined according to their scatter parameters, were counted in each sample. The experiments were performed in triplicate and the data was analyzed using Kaluza software.

P. aeruginosa ATCC 27853 [4] = assay: Membrane-penetrating activity of TAMRA-labelled peptide, flow cytometry; type: cell-based, Pseudomonas aeruginosa; conditions: 1 × MIC, measured with TAMRA-labelled PA-13
Protocol: To clarify whether bacterial membrane permeabilization resulted from peptide uptake, the interaction of TAMRA-labelled PA-13 with the membrane of bacteria cells was investigated by flow cytometry. […] After incubation, unbound labelled peptide was removed by washing with PBS. Then the fluorescence signal from treated cells was determined by flow cytometry (CytoFlex, Beckman Coulter).

[5] = system: Salmonella Typhimurium ATCC 13311; conditions: ATCC 13311, 24 h
[6] = system: Vibrio cholera O1 Inaba DMST 16261; conditions: MHB, 37 °C, 24 h
[7] = system: Acinetobacter baumannii MT strain; conditions: MT strain, 24 h
[8] = system: Staphylococcus aureus ATCC 25923; conditions: ATCC 25923, 24 h
[9] = system: Staphylococcus epidermidis ATCC 12228; conditions: ATCC 12228, 24 h
[10] = system: Enterococcus faecalis ATCC 29212; conditions: ATCC 29212, 24 h
[11] = system: Listeria monocytogenes 10403 s; conditions: 10403 s, 24 h
[12] = system: MDR P. aeruginosa clinical isolate No.2; conditions: MDR clinical isolate No.2, 24 h
[13] = system: MDR P. aeruginosa clinical isolate No.3; conditions: MDR clinical isolate No.3, 24 h
[14] = system: MDR P. aeruginosa clinical isolate No.5; conditions: MDR clinical isolate No.5, 24 h
[15] = system: MDR P. aeruginosa clinical isolate No.9; conditions: MDR clinical isolate No.9, 24 h
[16] = system: MDR P. aeruginosa clinical isolate No.12
[17] = system: MDR P. aeruginosa clinical isolate No.13; conditions: MDR clinical isolate No.13, 24 h

CC[C@H](C)[C@H](NC(=O)[C@H](CCCNC(=N)N)NC(=O)[C@H](CCCCN)NC(=O)[C@H](C)NC(=O)[C@@H](NC(=O)[C@@H](N)CCCCN)[C@@H](C)CC)C(=O)N[C@@H](Cc1c[nH]c2ccccc12)C(=O)N[C@@H](CCCCN)C(=O)N[C@H](C(=O)N[C@@H](CC(C)C)C(=O)N[C@@H](CCCNC(=N)N)C(=O)N[C@@H](CCCNC(=N)N)C(=O)N[C@@H](CCCNC(=N)N)C(N)=O)[C@@H](C)CC [PA-13] (H-KIAKRIWKILRRR-NH2; N-terminus assumed)
GM (Gr.− strains): geometric mean of MIC values from all Gram-negative strains [1]: 15.90 µg/mL | antimicrobial activity relative to ciprofloxacin [2]: 8-64 times | permeabilized and depolarized cells (P. aeruginosa ATCC 27853 [3]; 15 min): 72.75 ± 1.08% | permeabilized and depolarized cells (P. aeruginosa ATCC 27853 [3]; 30 min): 75.30 ± 2.68% | permeabilized and depolarized cells (P. aeruginosa ATCC 27853 [3]; 60 min): 81.66 ± 3.35% | cell population BOX+PI- (P. aeruginosa ATCC 27853 [3]; 15 min): 3.55% | cell population BOX-PI+ (P. aeruginosa ATCC 27853 [3]; 15 min): 7.74% | cell population BOX-PI- (P. aeruginosa ATCC 27853 [3]; 15 min): 0.68% | permeabilized and depolarized cells (BOX+PI+) (P. aeruginosa ATCC 27853 [3]; 15 min): 88.03 ± 3.02% and 88.03% | cell population BOX+PI- (P. aeruginosa ATCC 27853 [3]; 30 min): 5.74% | cell population BOX-PI+ (P. aeruginosa ATCC 27853 [3]; 30 min): 3.61% | cell population BOX-PI- (P. aeruginosa ATCC 27853 [3]; 30 min): 0.96% | permeabilized and depolarized cells (BOX+PI+) (P. aeruginosa ATCC 27853 [3]; 30 min): 89.69 ± 5.25% and 89.69% | cell population BOX+PI- (P. aeruginosa ATCC 27853 [3]; 60 min): 6.25% | cell population BOX-PI+ (P. aeruginosa ATCC 27853 [3]; 60 min): 1.05% | cell population BOX-PI- (P. aeruginosa ATCC 27853 [3]; 60 min): 0.62% | permeabilized and depolarized cells (BOX+PI+) (P. aeruginosa ATCC 27853 [3]; 60 min): 92.07 ± 5.15% and 92.07% | time to binding and penetration (P. aeruginosa ATCC 27853 [4]): ≤ 5 min | MIC [5]: 1.95 µg/mL (≈ 1.12 µM) | MIC [6]: 31.25 µg/mL (≈ 18 µM) | MIC [7]: 7.81 µg/mL (≈ 4.5 µM) | MIC [8]: 62.5 µg/mL (≈ 36 µM) | MIC [9]: 3.91 µg/mL (≈ 2.25 µM) | MIC [10]: 250 µg/mL (≈ 144 µM) | MIC [11]: 3.91 µg/mL (≈ 2.25 µM) | MIC [12]: 7.81 µg/mL (≈ 4.5 µM) | MIC [13]: 7.81 µg/mL (≈ 4.5 µM) | MIC [14]: 7.81 µg/mL (≈ 4.5 µM) | MIC [15]: 7.81 µg/mL (≈ 4.5 µM) | MIC [16]: 3.91 µg/mL (≈ 2.25 µM) | MIC [17]: 15.63 µg/mL (≈ 9 µM)

Source: PMC7272617 (Scientific Reports, 2020)
